Experimental data reported in ChEMBL document CHEMBL5038625, “Application of the dual-tail approach for the design and synthesis of novel Thiopyrimidine-Benzenesulfonamide hybrids as selective carbonic anhydrase inhibitors” (Eur J Med Chem, 2022).
One block for each compound: values may come before it.

Legend:
[1] = test system: CAKI-1; test: Antiproliferative activity against human CAKI-1 cells assessed as cell growth inhibition at 10 uM incubated for 24 hrs by sulforhodamine B assay; assay type: functional; conditions: read-out: GI
[2] = target: Carbonic anhydrase 1 (Homo sapiens, UniProt P00915); test: Inhibition of human CA1 preincubated for 15 mins by phenol red dye based stopped flow CO2 hydration assay
[3] = test system: SW-620; test: Antiproliferative activity against human SW-620 cells assessed as cell growth inhibition at 10 uM incubated for 24 hrs by sulforhodamine B assay; assay type: functional; conditions: read-out: GI
[4] = test system: HCT-15; test: Antiproliferative activity against human HCT-15 cells assessed as cell growth inhibition at 10 uM incubated for 24 hrs by sulforhodamine B assay; assay type: functional; conditions: read-out: GI
[5] = test system: SR; test: Antiproliferative activity against human SR cells assessed as cell growth inhibition at 10 uM incubated for 24 hrs by sulforhodamine B assay; assay type: functional; conditions: read-out: GI
[6] = target: Carbonic anhydrase 9 (Homo sapiens, UniProt Q16790); test: Inhibition of human CA9 preincubated for 15 mins by phenol red dye based stopped flow CO2 hydration assay
[7] = test system: UO-31; test: Antiproliferative activity against human UO-31 cells assessed as cell growth inhibition at 10 uM incubated for 24 hrs by sulforhodamine B assay; assay type: functional; conditions: read-out: GI
[8] = target: Carbonic anhydrase 2 (Homo sapiens, UniProt P00918); test: Inhibition of human CA2 preincubated for 15 mins by phenol red dye based stopped flow CO2 hydration assay
[9] = test system: K562; test: Antiproliferative activity against human K562 cells assessed as cell growth inhibition at 10 uM incubated for 24 hrs by sulforhodamine B assay; assay type: functional; conditions: read-out: GI
[10] = test system: LOX IMVI; test: Antiproliferative activity against human LOX IMVI cells assessed as cell growth inhibition at 10 uM incubated for 24 hrs by sulforhodamine B assay; assay type: functional; conditions: read-out: GI
[11] = test system: MOLT-4; test: Antiproliferative activity against human MOLT-4 cells assessed as cell growth inhibition at 10 uM incubated for 24 hrs by sulforhodamine B assay; assay type: functional; conditions: read-out: GI
[12] = test system: ACHN; test: Antiproliferative activity against human ACHN cells assessed as cell growth inhibition at 10 uM incubated for 24 hrs by sulforhodamine B assay; assay type: functional; conditions: read-out: GI
[13] = test system: A498; test: Antiproliferative activity against human A498 cells assessed as cell growth inhibition at 10 uM incubated for 24 hrs by sulforhodamine B assay; assay type: functional; conditions: read-out: GI
[14] = test system: CCRF-CEM; test: Antiproliferative activity against human CCRF-CEM cells assessed as cell growth inhibition at 10 uM incubated for 24 hrs by sulforhodamine B assay; assay type: functional; conditions: read-out: GI
[15] = test system: NCI-H460; test: Antiproliferative activity against human NCI-H460 cells assessed as cell growth inhibition at 10 uM incubated for 24 hrs by sulforhodamine B assay; assay type: functional; conditions: read-out: GI
[16] = test system: SNB-75; test: Antiproliferative activity against human SNB-75 cells assessed as cell growth inhibition at 10 uM incubated for 24 hrs by sulforhodamine B assay; assay type: functional; conditions: read-out: GI
[17] = test system: UACC-62; test: Antiproliferative activity against human UACC-62 cells assessed as cell growth inhibition at 10 uM incubated for 24 hrs by sulforhodamine B assay; assay type: functional; conditions: read-out: GI
[18] = test system: HL-60; test: Antiproliferative activity against human HL-60 cells assessed as cell growth inhibition at 10 uM incubated for 24 hrs by sulforhodamine B assay; assay type: functional; conditions: read-out: GI
[19] = test system: MDA-MB-231; test: Antiproliferative activity against human MDA-MB-231 cells assessed as reduction in cell viability incubated for 24 hrs by sulforhodamine B assay; assay type: functional, cell-based; conditions: MDA-MB-231, 24 h
[20] = test system: T47D; test: Antiproliferative activity against human T47D cells assessed as reduction in cell viability incubated for 24 hrs by sulforhodamine B assay; assay type: functional, cell-based
[21] = test system: MCF7; test: Antiproliferative activity against human MCF7 cells assessed as reduction in cell viability incubated for 24 hrs by sulforhodamine B assay; assay type: functional, cell-based; conditions: MCF7, 24 h
[22] = test system: RXF 393; test: Antiproliferative activity against human RXF 393 cells assessed as cell growth inhibition at 10 uM incubated for 24 hrs by sulforhodamine B assay; assay type: functional; conditions: read-out: GI
[23] = test system: SF-539; test: Antiproliferative activity against human SF-539 cells assessed as cell growth inhibition at 10 uM incubated for 24 hrs by sulforhodamine B assay; assay type: functional; conditions: read-out: GI
[24] = test system: MCF7; test: Antiproliferative activity against human MCF7 cells assessed as cell growth inhibition at 10 uM incubated for 24 hrs by sulforhodamine B assay; assay type: functional; conditions: read-out: GI
[25] = test system: HOP-92; test: Antiproliferative activity against human HOP-92 cells assessed as cell growth inhibition at 10 uM incubated for 24 hrs by sulforhodamine B assay; assay type: functional; conditions: read-out: GI
[26] = test system: PC-3; test: Antiproliferative activity against human PC-3 cells assessed as cell growth inhibition at 10 uM incubated for 24 hrs by sulforhodamine B assay; assay type: functional; conditions: read-out: GI
[27] = test system: NCI-H23; test: Antiproliferative activity against human NCI-H23 cells assessed as cell growth inhibition at 10 uM incubated for 24 hrs by sulforhodamine B assay; assay type: functional; conditions: read-out: GI
[28] = test system: MDA-MB-231; test: Antiproliferative activity against human MDA-MB-231 cells assessed as cell growth inhibition at 10 uM incubated for 24 hrs by sulforhodamine B assay; assay type: functional; conditions: read-out: GI
[29] = test system: NCI-H226; test: Antiproliferative activity against human NCI-H226 cells assessed as cell growth inhibition at 10 uM incubated for 24 hrs by sulforhodamine B assay; assay type: functional; conditions: read-out: GI
[30] = test system: SN12C; test: Antiproliferative activity against human SN12C cells assessed as cell growth inhibition at 10 uM incubated for 24 hrs by sulforhodamine B assay; assay type: functional; conditions: read-out: GI
[31] = test system: HCT-116; test: Antiproliferative activity against human HCT-116 cells assessed as cell growth inhibition at 10 uM incubated for 24 hrs by sulforhodamine B assay; assay type: functional; conditions: read-out: GI
[32] = test system: T47D; test: Antiproliferative activity against human T47D cells assessed as cell growth inhibition at 10 uM incubated for 24 hrs by sulforhodamine B assay; assay type: functional; conditions: read-out: GI

Sequence of Carbonic anhydrase 1 (P00915 whole entry): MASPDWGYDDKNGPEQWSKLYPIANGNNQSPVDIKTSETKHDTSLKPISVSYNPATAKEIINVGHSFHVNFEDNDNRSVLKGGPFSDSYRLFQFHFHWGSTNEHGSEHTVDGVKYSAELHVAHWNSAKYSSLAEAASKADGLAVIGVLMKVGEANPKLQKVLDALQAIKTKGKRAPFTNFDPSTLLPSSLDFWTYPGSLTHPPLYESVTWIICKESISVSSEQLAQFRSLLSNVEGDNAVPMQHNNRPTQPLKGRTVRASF

SMILES: COc1ccc(C(=O)CSc2nc(Nc3ccc(S(N)(=O)=O)cc3)c(C#N)c(-c3ccc(C)cc3)n2)cc1
Ki [6]: 8.71 µM

SMILES: COc1ccc(C(=O)CSc2nc(Nc3ccc(S(N)(=O)=O)cc3)c(C#N)c(-c3cc(OC)ccc3OC)n2)cc1
Ki [2]: > 20 µM | Ki [6]: 8.93 µM

SMILES: Cc1ccc(-c2nc(SCC(=O)c3ccc(Br)cc3)nc(Nc3cccc(S(N)(=O)=O)c3)c2C#N)cc1
inhibition of growth at 10 µM [1]: 20% | inhibition of growth at 10 µM [28]: 6.75% | inhibition of growth at 10 µM [22]: 17.6% | IC50 [19]: > 100 µM | inhibition of growth at 10 µM [4]: 5.65% | inhibition of growth at 10 µM [29]: 12.7% | inhibition of growth at 10 µM [5]: 11.3% | Ki [6]: 0.0887 µM | inhibition of growth at 10 µM [30]: 5.02% | inhibition of growth at 10 µM [7]: 36.7% | inhibition of growth at 10 µM [31]: 8.06% | inhibition of growth at 10 µM [23]: 17.5% | inhibition of growth at 10 µM [24]: 7.76% | inhibition of growth at 10 µM [9]: 6.32% | inhibition of growth at 10 µM [10]: 11.8% | inhibition of growth at 10 µM [25]: 67.2% | inhibition of growth at 10 µM [11]: 9.7% | inhibition of growth at 10 µM [14]: 6.1% | IC50 [20]: 60 µM | IC50 [21]: > 100 µM | inhibition of growth at 10 µM [26]: 13.4% | inhibition of growth at 10 µM [32]: 6.01% | inhibition of growth at 10 µM [27]: 7.38%

More lines, in order of falling Ki [6], values ahead:

Ki [2]: > 20 µM | Ki [6]: 7.64 µM | Ki [8]: > 20 µM
SMILES: Cc1ccc(-c2nc(SCC(=O)c3ccccc3)nc(Nc3cccc(S(N)(=O)=O)c3)c2C#N)cc1
inhibition of growth at 10 µM [1]: 13.6% | inhibition of growth at 10 µM [22]: 12.6% | inhibition of growth at 10 µM [4]: 5.35% | inhibition of growth at 10 µM [5]: 7.6% | inhibition of growth at 10 µM [7]: 24.4% | inhibition of growth at 10 µM [23]: 14.1% | inhibition of growth at 10 µM [24]: 11.9% | inhibition of growth at 10 µM [10]: 11.3% | inhibition of growth at 10 µM [25]: 65.2% | inhibition of growth at 10 µM [26]: 6.2% | inhibition of growth at 10 µM [27]: 5.21%

Ki [6]: 0.878 µM
SMILES: COc1ccc(C(=O)CSc2nc(Nc3cccc(S(N)(=O)=O)c3)c(C#N)c(-c3ccc(C)cc3)n2)cc1

Ki [2]: > 20 µM | Ki [6]: 0.0915 µM | Ki [8]: > 20 µM
SMILES: COc1ccc(C(=O)CSc2nc(Nc3ccc(S(N)(=O)=O)cc3)cc(-c3ccccc3)n2)cc1
inhibition of growth at 10 µM [1]: 12.6% | inhibition of growth at 10 µM [3]: 13.9% | inhibition of growth at 10 µM [4]: 9.43% | inhibition of growth at 10 µM [5]: 27% | inhibition of growth at 10 µM [7]: 13% | inhibition of growth at 10 µM [9]: 46.3% | inhibition of growth at 10 µM [10]: 26.1% | inhibition of growth at 10 µM [11]: 22.1% | inhibition of growth at 10 µM [12]: 28% | inhibition of growth at 10 µM [13]: 19.8% | inhibition of growth at 10 µM [14]: 11% | inhibition of growth at 10 µM [15]: 26.9% | inhibition of growth at 10 µM [16]: 10.4% | inhibition of growth at 10 µM [17]: 13.2% | inhibition of growth at 10 µM [18]: 15%

IC50 [19]: 26 µM | Ki [6]: 0.0858 µM | IC50 [20]: 44.4 µM | IC50 [21]: 44.5 µM
SMILES: NS(=O)(=O)c1ccc(Nc2cc(-c3ccccc3)nc(SCC(=O)c3ccccc3)n2)cc1
